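GI50 is the concentration that inhibits growth by half. At the TGI there is no net growth.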
Tests used:
Test in all cases: inhibition of tumour cell growth, NCI panel, 384-well format
SW-620 colon = test system: SW-620 colon
TK-10 renal = test system: TK-10 renal
UO-31 renal = test system: UO-31 renal
UACC-62 melanoma = test system: UACC-62 melanoma
KM12 colon = test system: KM12 colon
HCC-2998 colon = test system: HCC-2998 colon
T-47D breast = test system: T-47D breast
A549 NSCLC = test system: A549 NSCLC
SR leukemia = test system: SR leukemia
MALME-3M melanoma = test system: MALME-3M melanoma
MCF7 breast = test system: MCF7 breast
SF-268 CNS = test system: SF-268 CNS
HCT-116 colon = test system: HCT-116 colon
OVCAR-8 ovarian = test system: OVCAR-8 ovarian
NCI-H23 lung = test system: NCI-H23 lung
SK-MEL-2 melanoma = test system: SK-MEL-2 melanoma
NCI-H322M lung = test system: NCI-H322M lung
OVCAR-4 ovarian = test system: OVCAR-4 ovarian
PC-3 prostate = test system: PC-3 prostate
CAKI-1 renal = test system: CAKI-1 renal
OVCAR-3 ovarian = test system: OVCAR-3 ovarian
SF-539 CNS = test system: SF-539 CNS
SK-OV-3 ovarian = test system: SK-OV-3 ovarian
SF-295 CNS = test system: SF-295 CNS
NCI-H460 NSCLC = test system: NCI-H460 NSCLC
ACHN renal = test system: ACHN renal
NCI-H226 lung = test system: NCI-H226 lung
SNB-75 CNS = test system: SNB-75 CNS
MDA-MB-435 melanoma = test system: MDA-MB-435 melanoma
SNB-19 CNS = test system: SNB-19 CNS
BT-549 breast = test system: BT-549 breast
MDA-MB-468 breast = test system: MDA-MB-468 breast
HOP-62 NSCLC = test system: HOP-62 NSCLC
HL-60(TB) leukemia = test system: HL-60(TB) leukemia
IGROV1 ovarian = test system: IGROV1 ovarian
UACC-257 melanoma = test system: UACC-257 melanoma
M14 melanoma = test system: M14 melanoma
HT29 colon = test system: HT29 colon
SK-MEL-28 melanoma = test system: SK-MEL-28 melanoma
K-562 leukemia = test system: K-562 leukemia
HOP-92 NSCLC = test system: HOP-92 NSCLC
HS 578T breast = test system: HS 578T breast
MOLT-4 leukemia = test system: MOLT-4 leukemia
U251 glioblastoma = test system: U251 glioblastoma
RPMI-8226 leukemia = test system: RPMI-8226 leukemia
SK-MEL-5 melanoma = test system: SK-MEL-5 melanoma
RXF 393 renal = test system: RXF 393 renal
SN12C renal = test system: SN12C renal
HCT-15 colon = test system: HCT-15 colon
COLO 205 colon = test system: COLO 205 colon
LOX IMVI melanoma = test system: LOX IMVI melanoma
NCI-H522 lung = test system: NCI-H522 lung
OVCAR-5 ovarian = test system: OVCAR-5 ovarian
786-0 renal = test system: 786-0 renal
CCRF-CEM leukemia = test system: CCRF-CEM leukemia
EKVX NSCLC = test system: EKVX NSCLC
A498 renal = test system: A498 renal
DU-145 prostate = test system: DU-145 prostate
MDA-MB-231 breast = test system: MDA-MB-231 breast

Molecule `COc1cc([C@@H]2c3cc4c(cc3[C@@H](OC3OC5COC(C)OC5C(O)C3O)[C@H]3COC(=O)[C@H]23)OCO4)cc(OC)c1O` (stereo not given in full) has a GI50 (SW-620 colon) of 441 nM, a TGI (SW-620 colon) of 5580 nM and a GI50 (TK-10 renal) of 2880 nM. The TGI (TK-10 renal) was 11300 nM, the GI50 (UO-31 renal) was 22200 nM and the TGI (UO-31 renal) was over 77900 nM. The GI50 (UACC-62 melanoma) was 1330 nM, the TGI (UACC-62 melanoma) was 16600 nM and the GI50 (KM12 colon) was 1680 nM. The TGI (KM12 colon) was 7910 nM, the GI50 (HCC-2998 colon) was 1820 nM and the TGI (HCC-2998 colon) was 4150 nM. It also gave a GI50 (T-47D breast) of 1040 nM, a TGI (T-47D breast) of over 95300 nM and a GI50 (A549 NSCLC) of 1220 nM. It also gave a TGI (A549 NSCLC) of over 47000 nM, a GI50 (SR leukemia) of 16.1 nM and a TGI (SR leukemia) of 49.4 nM. For the same molecule, the GI50 (MALME-3M melanoma) was 6150 nM, the TGI (MALME-3M melanoma) was 43500 nM and the GI50 (MCF7 breast) was 716 nM. For the same molecule, the GI50 (SF-268 CNS) was 1360 nM, the TGI (SF-268 CNS) was 6870 nM and the GI50 (HCT-116 colon) was 560 nM. The TGI (HCT-116 colon) was 25900 nM, the GI50 (OVCAR-8 ovarian) was 1530 nM and the TGI (OVCAR-8 ovarian) was 10300 nM. It also gave a GI50 (NCI-H23 lung) of 809 nM, a TGI (NCI-H23 lung) of 4370 nM and a GI50 (SK-MEL-2 melanoma) of 4150 nM. For the same molecule, the TGI (SK-MEL-2 melanoma) was 8270 nM, the GI50 (NCI-H322M lung) was 29100 nM and the TGI (NCI-H322M lung) was over 96700 nM. The GI50 (OVCAR-4 ovarian) was 39900 nM, the GI50 (PC-3 prostate) was 20400 nM and the GI50 (CAKI-1 renal) was 1610 nM. For the same molecule, the TGI (CAKI-1 renal) was over 41000 nM, the GI50 (OVCAR-3 ovarian) was 2640 nM and the TGI (OVCAR-3 ovarian) was 13800 nM. The GI50 (SF-539 CNS) was 976 nM, the TGI (SF-539 CNS) was 4380 nM and the GI50 (SK-OV-3 ovarian) was 2940 nM. For the same molecule, the TGI (SK-OV-3 ovarian) was 14600 nM, the GI50 (SF-295 CNS) was 851 nM and the TGI (SF-295 CNS) was 3010 nM. For the same molecule, the GI50 (NCI-H460 NSCLC) was 91.5 nM, the TGI (NCI-H460 NSCLC) was 7610 nM and the GI50 (ACHN renal) was 1800 nM. The TGI (ACHN renal) was 10300 nM, the GI50 (NCI-H226 lung) was 2480 nM and the TGI (NCI-H226 lung) was over 37200 nM. The GI50 (SNB-75 CNS) was 1360 nM, the TGI (SNB-75 CNS) was 6630 nM and the GI50 (MDA-MB-435 melanoma) was 3960 nM. It also gave a TGI (MDA-MB-435 melanoma) of 20400 nM, a GI50 (SNB-19 CNS) of 1080 nM and a TGI (SNB-19 CNS) of over 23100 nM. For the same molecule, the GI50 (BT-549 breast) was 877 nM, the TGI (BT-549 breast) was 4740 nM and the GI50 (MDA-MB-468 breast) was 1130 nM. For the same molecule, the TGI (MDA-MB-468 breast) was 2780 nM, the GI50 (HOP-62 NSCLC) was 747 nM and the TGI (HOP-62 NSCLC) was 2510 nM. The GI50 (HL-60(TB) leukemia) was 21.5 nM, the TGI (HL-60(TB) leukemia) was 49.2 nM and the GI50 (IGROV1 ovarian) was 4270 nM. For the same molecule, the TGI (IGROV1 ovarian) was over 37600 nM, the GI50 (UACC-257 melanoma) was 16600 nM and the TGI (UACC-257 melanoma) was over 75900 nM. For the same molecule, the GI50 (M14 melanoma) was 1320 nM, the TGI (M14 melanoma) was 6640 nM and the GI50 (HT29 colon) was 2280 nM. For the same molecule, the TGI (HT29 colon) was 7300 nM, the GI50 (SK-MEL-28 melanoma) was 2610 nM and the TGI (SK-MEL-28 melanoma) was 11400 nM. For the same molecule, the GI50 (K-562 leukemia) was 910 nM, the TGI (K-562 leukemia) was 6360 nM and the GI50 (HOP-92 NSCLC) was 2460 nM. It also gave a TGI (HOP-92 NSCLC) of over 43100 nM, a GI50 (HS 578T breast) of 463 nM and a TGI (HS 578T breast) of 4820 nM. The GI50 (MOLT-4 leukemia) was 17.6 nM, the TGI (MOLT-4 leukemia) was 38.9 nM and the GI50 (U251 glioblastoma) was 533 nM. It also gave a TGI (U251 glioblastoma) of 5050 nM, a GI50 (RPMI-8226 leukemia) of 36.1 nM and a TGI (RPMI-8226 leukemia) of 564 nM. It also gave a GI50 (SK-MEL-5 melanoma) of 370 nM, a TGI (SK-MEL-5 melanoma) of 1710 nM and a GI50 (RXF 393 renal) of 9620 nM. The TGI (RXF 393 renal) was 38300 nM, the GI50 (SN12C renal) was 1280 nM and the TGI (SN12C renal) was 5720 nM. It also gave a GI50 (HCT-15 colon) of 2010 nM, a TGI (HCT-15 colon) of 13600 nM and a GI50 (COLO 205 colon) of 433 nM. It also gave a TGI (COLO 205 colon) of 10600 nM, a GI50 (LOX IMVI melanoma) of 1660 nM and a TGI (LOX IMVI melanoma) of 15900 nM. The GI50 (NCI-H522 lung) was 1210 nM, the TGI (NCI-H522 lung) was 7350 nM and the GI50 (OVCAR-5 ovarian) was 3370 nM. The TGI (OVCAR-5 ovarian) was 13800 nM, the GI50 ([…]-0 renal) was 1590 nM and the TGI (786-0 renal) was 7560 nM. For the same molecule, the GI50 (CCRF-CEM leukemia) was 63.8 nM, the TGI (CCRF-CEM leukemia) was 200 nM and the GI50 (EKVX NSCLC) was 11300 nM. The TGI (EKVX NSCLC) was over 43600 nM, the GI50 (A498 renal) was 2000 nM and the TGI (A498 renal) was 19000 nM. For the same molecule, the GI50 (DU-145 prostate) was 1520 nM, the TGI (DU-145 prostate) was 5250 nM and the GI50 (MDA-MB-231 breast) was 1880 nM. It also gave a TGI (MDA-MB-231 breast) of 4620 nM.

Source: PubChem BioAssay (NCI)
